Test results reported in ChEMBL document CHEMBL3596193, “Pradimicin A, a D-mannose-binding antibiotic, binds pyranosides of L-fucose and L-galactose in a calcium-sensitive manner” (Bioorg Med Chem Lett, 2015).

Tests used:
[1] = Binding affinity to L-Galactose assessed as molar ratio of sugar to compound in aggregate at 2 umol incubated at 60 degC for 15 mins, room temperature for 1 hr, and 4 degC for 1 hr by co-precipitation method in presence of 100 umol CaCl2
[2] = Binding affinity to alpha-D-Mannose-OMe assessed as molar ratio of sugar to compound in aggregate at 2 umol at pH 6 by 1H NMR analysis in presence of 20 umol CaCl2
[3] = Binding affinity to D-Glucose assessed as molar ratio of sugar to compound in aggregate at 2 umol at pH 6 by 1H NMR analysis in presence of 20 umol CaCl2
[4] = Binding affinity to alpha-L-Galactose-OMe assessed as molar ratio of sugar to compound in aggregate at 2 umol at pH 6 by 1H NMR analysis in presence of 20 umol CaCl2
[5] = Binding affinity to D-Mannose assessed as molar ratio of sugar to compound in aggregate at 2 umol at pH 6 by 1H NMR analysis in presence of 20 umol CaCl2
[6] = Binding affinity to beta-L-[…]-OMe assessed as molar ratio of sugar to compound in aggregate at 2 umol at pH 6 by 1H NMR analysis in presence of 20 umol CaCl2
[7] = Binding affinity to beta-L-Galactose-OMe assessed as molar ratio of sugar to compound in aggregate at 2 umol incubated at 60 degC for 15 mins, room temperature for 1 hr, and 4 degC for 1 hr by co-precipitation method in presence of 100 umol CaCl2
[8] = Binding affinity to alpha-L-[…]-OMe assessed as molar ratio of sugar to compound in aggregate at 2 umol incubated at 60 degC for 15 mins, room temperature for 1 hr, and 4 degC for 1 hr by co-precipitation method in presence of 100 umol CaCl2
[9] = Binding affinity to D-Mannose assessed as molar ratio of sugar to compound in aggregate at 2 umol at pH 6 incubated at 60 degC for 15 mins, room temperature for 1 hr, and 4 degC for 1 hr by co-precipitation method in presence of 100 umol CaCl2
[10] = Binding affinity to alpha-D-Mannose-OMe assessed as molar ratio of sugar to compound in aggregate at 2 umol incubated at 60 degC for 15 mins, room temperature for 1 hr, and 4 degC for 1 hr by co-precipitation method in presence of 100 umol CaCl2
[11] = Binding affinity to L-[…] assessed as molar ratio of sugar to compound in aggregate at 2 umol at pH 6 by 1H NMR analysis in presence of 20 umol CaCl2
[12] = Binding affinity to L-[…] assessed as molar ratio of sugar to compound in aggregate at 2 umol incubated at 60 degC for 15 mins, room temperature for 1 hr, and 4 degC for 1 hr by co-precipitation method in presence of 100 umol CaCl2
[13] = Binding affinity to beta-D-Mannose-OMe assessed as molar ratio of sugar to compound in aggregate at 2 umol at pH 6 by 1H NMR analysis in presence of 20 umol CaCl2
[14] = Binding affinity to beta-L-Galactose-OMe assessed as molar ratio of sugar to compound in aggregate at 2 umol at pH 6 by 1H NMR analysis in presence of 20 umol CaCl2
[15] = Binding affinity to beta-D-Mannose-OMe assessed as molar ratio of sugar to compound in aggregate at 2 umol incubated at 60 degC for 15 mins, room temperature for 1 hr, and 4 degC for 1 hr by co-precipitation method in presence of 100 umol CaCl2
[16] = Binding affinity to alpha-D-Glucose-OMe assessed as molar ratio of sugar to compound in aggregate at 2 umol at pH 6 by 1H NMR analysis in presence of 20 umol CaCl2
[17] = Binding affinity to D-Glucose assessed as molar ratio of sugar to compound in aggregate at pH 4.5 by co-precipitation method in presence of Ca2+
[18] = Binding affinity to Alpha-D-Mannose-OMe assessed as molar ratio of sugar to compound in aggregate at pH 4.5 by co-precipitation method in presence of Ca2+
[19] = Binding affinity to alpha-L-[…]-OMe assessed as molar ratio of sugar to compound in aggregate at 2 umol at pH 6 by 1H NMR analysis in presence of 20 umol CaCl2
[20] = Binding affinity to L-Galactose assessed as molar ratio of sugar to compound in aggregate at 2 umol at pH 6 by 1H NMR analysis in presence of 20 umol CaCl2
[21] = Binding affinity to D-Arabinose assessed as molar ratio of sugar to compound in aggregate at 2 umol at pH 6 by 1H NMR analysis in presence of 20 umol CaCl2
[22] = Binding affinity to beta-L-[…]-OMe assessed as molar ratio of sugar to compound in aggregate at 2 umol incubated at 60 degC for 15 mins, room temperature for 1 hr, and 4 degC for 1 hr by co-precipitation method in presence of 100 umol CaCl2
[23] = Binding affinity to alpha-L-Galactose-OMe assessed as molar ratio of sugar to compound in aggregate at 2 umol incubated at 60 degC for 15 mins, room temperature for 1 hr, and 4 degC for 1 hr by co-precipitation method in presence of 100 umol CaCl2

Activity [1]: < 0.1 molar ratio
Activity [2]: 1.13 molar ratio
Activity [3]: < 0.1 molar ratio
Activity [4]: 0.32 molar ratio
Activity [5]: 1.07 molar ratio
Activity [6]: 0.52 molar ratio
Activity [7]: < 0.1 molar ratio
Activity [8]: < 0.1 molar ratio
Activity [9]: 1.08 molar ratio
Activity [10]: 1.11 molar ratio
Activity [11]: < 0.1 molar ratio
Activity [12]: < 0.1 molar ratio
Activity [13]: 1.15 molar ratio
Activity [14]: 0.6 molar ratio
Activity [15]: 1.08 molar ratio
Activity [16]: < 0.1 molar ratio
Activity [17]: 0.57 molar ratio
Activity [18]: 1.08 molar ratio
Activity [19]: 0.28 molar ratio
Activity [20]: < 0.1 molar ratio
Activity [21]: 1.14 molar ratio
Activity [22]: < 0.1 molar ratio
Activity [23]: < 0.1 molar ratio
Structure (SMILES): CN[C@@H]1[C@H](O[C@@H]2OC[C@@H](O)[C@H](O)[C@H]2O)[C@@H](O)[C@H](O[C@H]2c3cc(C)c(C(=O)N[C@H](C)C(=O)O)c(O)c3-c3c(cc4c(c3O)C(=O)c3cc(OC)cc(O)c3C4=O)[C@@H]2O)O[C@@H]1C
